Data as given in US6960559B1, “Neurite growth regulatory factors” (University of Zurich, priority 1988, dated 2005).
Where a SMILES comes first, the peptide text is derived from it. The star is where a group is joined. Cbz = O=C(OCc1ccccc1)*

Key:
[1] = system: C6 cells; test: C6 cell spreading on CNS myelin or PLYS with protease inhibitors; assay type: cell-based, rat
Method: Rat C6, mouse NIH 3T3 and B16 cells were cultured in Dulbecco's modified Eagle's medium (DMEM) supplemented with 10% fetal calf serum (FCS), usually to maximally 70-80% confluency. Cells were harvested with a short trypsin treatment (0.1% in Ca^2+/Mg^2+-free Hank's medium for 90 seconds) stopped by addition of FCS in excess, collected by centrifugation. Cells were resuspended in either DMEM/FCS or defined serum-free medium (MEM) and used for experiments. Dissociated rat CNS glial cells were prepared starting from optic nerves of 6-7 days old Lewis rats as described in Section 6.1.1, supra and plated into poly-D-lysine (PLYS) coated wells (100 mm^2, 100 μl medium) at a density of 20,000 cells per well. The culture medium was an enriched L15 medium with 5% rat serum, penicillin and streptomycin. C6, 3T3 and B16 cells were added to 2 day old cultures at a concentration of 30,000 cells per well, incubated for two hours and fixed with warm 4% formalin in phosphate buffer. Inhibitory oligodendrocytes were identified by double labelling using the specific antibodies O1 and O4 (see Section 6.1.3, supra).
Myelin from rat spinal cord (CNS) or sciatic nerve (PNS) purified on a discontinuous sucrose gradient as described in Section 6.1.5., was dried overnight onto PLYS coated wells (20 μg protein/well of 100 mm^2 surface). Unbound membranes were removed by three washes with Ca^2+/Mg^2+-free Hank's solution. Myelin coated wells were immediately used in substrate testing assays by the addition of 9,000 cells (C6, 3T3, or B16) per cm^2. Alternatively, we used extracted CNS myelin protein, or SDS-PAGE purified 35 and 250 kD inhibitory proteins reconstituted in liposomes (see Section 7.1.5, supra). Experiments were scored at different time points using a phase contrast microscope equipped with a photocamera. Quantifications were done using a surface integration program; three arbitrary fields were photographed for each well at a magnitude of 80×, at least 25 cells per picture were measured. Each point represents the mean of at least 3 wells±SEM. Results are expressed as μ^2 of projected cell surface, or as degree, which was calculated by subtracting from the projected surface value of a spreading cell, the surface value of a completely spheric cell.

[2] = system: C6 cells; test: C6 cell infiltration into optic nerve explants; assay type: cell-based, rat; settings: nerves injected with 3 mM peptide, 0.5 mM in medium; 14 days
Method: Optic nerve and sciatic nerve explants were prepared as described (Schwab and Thoenen, 1985, J. Neurosci. 5:2415-2423). Briefly, the nerves were rapidly dissected from about 8 week old male rats, cleaned from the meninges, 3 times frozen and thawed using liquid nitrogen, and placed under a teflon ring (diameter 13 mm, thickness 1 mm) sealed to a culture dish with silicon grease. Two chambers connected only by the explants were in this way obtained. 300,000 C6, 3T3 or B16 cells were plated in the inner chamber in DMEM/FCS and incubated for 5 to 20 days. The medium was changed every other day. Cultures were fixed overnight with 4% formalin. The nerve explants were mounted with Tissue-Tek, 10 to 15 μm sections were cut in a cryostate and collected on gelatine coated cover slips. After drying at room temperature overnight, the sections were stained in 0.75% cresyl violet, and evaluated. The infiltrated cells were counted for each 0.1 mm of the explants, starting from the tip where cells were added. Due to the 15 day incubation, the explants were often different in diameter. Therefore, only the central part of the nerves (0.25 mm) were considered, since only this part of the explants presented a good histological quality. Inhibition experiments were performed with nerve explants previously injected from both sides with 2 μl of 3 mM cbz-tyr-tyr or cbz-ala-phe solutions.

[3] = system: C6 cells; test: C6 cell attachment and spreading on rat cerebellar frozen sections; assay type: cell-based; settings: 1,10-phenanthroline 50-300 μM; cbz-tyr-tyr 100 μM
Method: Adult rat cerebellum frozen sections were prepared and dried on glass coverslips. 70,000 C6, 3T3, or B16 cells in 100 μl were added to each well containing slices previously rinsed with cold DMEM/FCS. Cultures were incubated for 2 days at 37° C. Cultures were then fixed and stained with cresyl violet. Three to four cerebellum slices were used per point per experiment, with each experiment being repeated at least 2 times.

[4] = system: C6 glioblastoma cells; test: cells; assay type: cell-based, rat; settings: 2 h
Method: Rat C6 glioblastoma cells (Benda et al., 1968, Science 161:370-371) were cultured in Dulbecco's modified Eagle's medium (DMEM) supplemented with 10% fetal calf serum (FCS), usually to maximally 70-80% confluency (Paganetti et al., 1988, J. Cell Biol. 107:2281-2291). All cell culture media were routinely supplemented with penicillin and streptomycin. Cells were harvested by a short trypsin treatment (0.1% in Ca^2+/Mg^2+-free [CMF] PBS/EDTA solution for 90 seconds) followed by addition of DMEM/10% FCS and centrifugation (600×g, 6 min). The cell pellet was rinsed with 5 ml DMEM/10% FCS and centrifuged. For cell spreading assays, cells were resuspended at 10^6/ml in defined serum-free medium (MEMα) supplemented with 0.2 μg/ml insulin, 0.5 μg/ml transferrin and 0.12 μg/ml bovine serum albumin (BSA). Protease blockers or peptides were added directly to the cell suspension from 10×solutions 10 min before plating.
Spinal cord myelin from young adult Lewis rats was purified on a discontinuous sucrose gradient (Colman et al., 1982, J. Cell Biol. 95:598-608; Schwab and Caroni, 1988, J. Neurosci. 8:2381-2393) and stored in 100 mM sucrose, 25 mM TRIS/HCl pH 7.4 at −80° C. up to 6 months. The myelin suspension ([…]) was incubated for 30 min on poly-D-lysine-coated wells (PLYS-wells). Unbound myelin membranes were removed by rinsing twice with CMF-Hank's and once with MEMα. Myelin-coated wells were used immediately for the spreading assay by adding 9'000 C6 cells per cm^2. Experiments were scored as described (Paganetti et al., 1988, J. Cell Biol. 107:2281-2291).

In the case of O=C(N[C@@H](Cc1ccc(O)cc1)C(=O)N[C@@H](Cc1ccc(O)cc1)C(=O)O)OCc1ccccc1 [cbz-tyr-tyr, carbobenzoxy-tyrosine-tyrosine] (Cbz-Tyr-Tyr-OH), the “Maximal inhibition of C6 cell spreading on CNS myelin” value ([1]; 2 h) is reported as “up to 67%”, the “Inhibition on CNS (%)” value ([1]; C6 cells, spreading on PLYS minus spreading on CNS myelin) is reported as 45% and the “C6 cell infiltration into optic nerve explants, in words” value [2] is reported as “inhibited C6 cell infiltration in all the 8 nerves examined”. The “C6 cells on white matter of cerebellar frozen sections, in words” value [3] was “dramatically changed the distribution and behavior of C6 cells on the white matter areas” and the IC50 [4] was 300 µM.
